Assay results published in paper PMC2360332 (British Journal of Cancer, 2007).
Read-outs that look alike come from different tables or passages of the source.

Experiments:
[1] = system: oestrogen receptor (ER); experiment: Inhibition of binding of [^3H]E2 to oestrogen receptor (rabbit uterine cytosol); conditions: rabbit uterine cytosol 2.5 mg protein ml^−1, 20 μl of 10 nM 6,7-[^3H]E2, overnight at 4°C, pH 7.4, dextran-coated charcoal; triplicate
Method: Rabbit uteri (Pel-Freez Biological, Rogers, AR, USA) were used as a source of ER. Uteri were pulverised in a stainless-steel impact mortar under liquid nitrogen and homogenised (20% w/v) in buffer (10 mM Tris, pH 7.4, 1.5 mM EDTA, 10% glycerol, 10 mM monothioglycerol, and 10 mM sodium molybdate) on ice. Centrifugation (50 000 g) for 1 h yielded cytosol, which was adjusted with buffer to 2.5 mg protein ml^−1. All incubations were carried out in triplicate, each containing 100 μl of cytosol, 20 μl of 10 nM 6,7-[^3H]oestradiol (6,7-[^3H]E2), and 80 μl of antagonist. After incubation overnight at 4°C, tubes received 300 μl of dextran-coated charcoal suspension; tubes were agitated for 15 min, and then centrifuged (1000 g) for 15 min.
Rabbit uterine cytosol was used as a source of ER. Test agents (80 μl) at the final concentrations indicated were incubated in triplicate with 100 μl of cytosol, and 20 μl of 10 nM 6,7-[^3H]E2 (50 Ci mmol^−1). The concentration of the [^3H]E2 complex with receptor in the presence of the test agent is expressed as a percentage of the amount of complex formed in the absence of test agent.

[2] = system: MCF-7 human breast cancer xenografts; experiment: MCF-7 human breast cancer xenograft under kidney capsule of SCID mice; format: in vivo, human (cells), SCID mice (host); conditions: E2 supplementation, five mice per group
Description: Ten million MCF-7 human breast cancer cells were harvested from culture, centrifuged into a pellet, solidified into a fibrin clot, and implanted under the kidney capsule of SCID mice as described previously ([Bennett et al, 1985], [2002], [2006]; [Mesfin et al, 2001]; [Parikh et al, 2005]). Oestrogen supplementation was accomplished by s.c. implantation of a 5 mm silastic tubing capsule containing solid E2 inserted on the day of tumour implantation. […] The tumour-bearing kidney was exposed during survival laparotomy at 14 and 28 days after implantation and tumour size was measured using a dissecting microscope equipped with an ocular micrometer, noting the long (D) and short (d) diameters of the tumour. Five replicate mice were included in each treatment group. Mean tumour volume (0.52d^2D) was calculated for each group, and used for display of growth curves. Significance of differences between groups was tested using the one-sided Wilcoxon rank sum test.
Pieces of MCF-7 tumour were implanted under the kidney capsule of SCID mice. Oestradiol was provided via an E2-containing silastic tubing subcutaneous implant.

[3] = system: ER; conditions: ref Parikh et al, 2005; Bennett et al, 2006; cited from earlier work
Description: In fact, in this study and ...

[4] = system: T47D human breast cancer cells; experiment: Growth of T47D human breast cancer cells in culture (7 days, viable cell count); format: cell-based; conditions: for Inhibition of basal (no E2) growth of T47D cells (in words): 10^−8 to 10^−5 M, data not shown; for Inhibition of E2-stimulated growth of T47D cells, single agent (in words): E2 10^−9 M added 1 h after agent, daily for 7 days, agent used alone, concentration–response in Figure 1A
Method: The MCF-7 cells were maintained in monolayer culture in Dulbecco's modification of Eagle's medium (DMEM) supplemented with 5% fetal bovine serum, glutamine (2 mM), nonessential amino acids (1%), and bovine insulin (1 μg ml^−1). The T47D human breast cancer cells were maintained in monolayer culture in RPMI-1640 medium supplemented with 10% fetal bovine serum, 100 IU ml^−1 penicillin, 100 μg ml^−1 streptomycin, 0.25 μg ml^−1 amphotericin B, and 8 μg ml^−1 bovine insulin in T-75 flasks with 2–3 medium changes per week. Cells were maintained at 37°C in an atmosphere of 5% CO2, 95% air. To evaluate the oestrogen-stimulated growth of these cells, they were released from monolayer using 0.25% trypsin/0.53 mM EDTA and suspended in oestrogen-free medium comprised of DMEM (high glucose, phenol red-free), supplemented with 10% charcoal-stripped bovine calf serum, 2 mM glutamine, 100 IU ml^−1 penicillin, and 100 μg ml^−1 streptomycin. One millilitre containing 1.2 × 10^5 cells was seeded into each well of a 24-well plate coated with collagen IV (BD Biosciences, Bedford, MA, USA). […] Control wells received the vehicle. Medium was changed every other day before treatment. One day after the last treatment, cells were trypsinised and resuspended in oestrogen-free medium, and counted using a haemacytometer following dilution with trypan blue. Viable cell number is reported.
T47D (1 × 10^5) cells were seeded into wells of collagen-coated plates in oestrogen-free medium. Medium was changed daily. Twenty-four hours after seeding, AFPep and/or Tam were added. One hour later E2 (10^−9 M) was added. Cells were treated daily for 7 days after which cells were harvested and counted in a hemacytometer. Mean viable cell number of six replicate wells ±s.e. was determined. (A) Concentration–response curve of each agent alone. Inhibition (%) of E2-stimulated growth is reported. (▪) Tam; (▴) AFPep. […] Mean viable cell number is reported.

[5] = system: MNU-induced breast cancers in rats; experiment: Prevention of MNU-induced mammary cancers in rats; conditions: for Inhibition of tumour formation (in words): Tam 6.25 μg animal^−1 day^−1 or higher, AFPep 270 μg animal^−1 day^−1; for Incidence (percent of rats with one or more tumours when killed, approximately 120 days after MNU): 20 days from 10 days after MNU 50 mg kg^−1, n=30 rats, control 78%; for Volume (sum of the volumes of tumours in each group) / Multiplicity (total number of tumours/number of rats) / Latency (mean number of tumour-free days±s.d.): 20 days; for Volume (sum of the volumes of tumours in each group): control 69.0; for Multiplicity (total number of tumours/number of rats): control 2.1; for Latency (mean number of tumour-free days±s.d.): control 80±31
Method: Female rats were housed three per cage in a room maintained at 22±1°C, and artificially lighted for 12 h per day. At 50 days of age, rats received a single injection of MNU (50 mg kg^−1 body weight) or vehicle in the jugular vein. N-methyl-N-nitrosourea was administered to animals in the various treatment groups according to a predetermined randomisation chart, so as to ensure uniform distribution of the carcinogen across the groups. […] A control group of animals received daily 0.2 ml s.c. injections of saline for the same time period as AFPep administration and experienced the maximal number of tumours. Starting 30 days after MNU treatment, all rats were palpated weekly for detection of mammary tumours, noting number, location, and size. Tumour burden was determined noninvasively using calipers to measure the long (D) and short (d) diameter of each tumour. Assuming that tumours were ellipsoid shaped, tumour volume was estimated as (0.52d^2D). Cage activity of all animals was monitored daily for gross signs of toxicity. At necropsy, body weight and organ weights were assessed as indicators of toxicity.
Sprague–Dawley female rats (n=30 rats group^−1) received MNU (50 mg kg^−1) at the age of 50 days. […] Animals were palpated weekly. The incidence of tumours is shown as a function of time after carcinogen treatment.

[6] = system: immature mouse uterus; experiment: Immature mouse uterine growth assay; format: in vivo, Swiss mice; conditions: uteri harvested 22 h later, five mice per group; for Growth of immature mouse uterus (in words): single agent i.p., Tam 1 μg or AFPep 10 μg
Description: Control mice received the vehicle. Twenty-two hours later, uteri were harvested, trimmed free of connective tissue, and weighed. Uterine weights were normalised to donor mouse body weight. There were five replicate mice per group.
Twenty-two hours after treatment, uteri were harvested, weighed, and normalised to mouse body weight.

[7] = Toxicity in MNU-exposed rats (body weight, organ weights, fur texture, cage activity); format: in vivo, Sprague–Dawley rats; conditions: for Uterine weight / Heart weight / Body weight: 20 days; for Uterine weight: control 0.54±0.15; for Heart weight: control 1.10±0.14; for Body weight: control 283±30
Description: [Swanson et al, 1997]). […] In the therapy model (human tumour xenografts growing in mice) and in the prevention model (MNU-induced mammary cancers in rats), the toxicity of […]

[8] = system: phosphorylation of ER at serine 118; conditions: cited from earlier work
Description: Mechanistically, AFPep is quite different from Tam. […] In fact, in this study and ...

[9] = effective single-agent dose: AFPep 10 μg mouse^−1 day^−1 i.p. or Tam 1 μg mouse^−1 day^−1 p.o., over a 30-day period
[10] = suboptimal dose: AFPep 0.1 μg i.p., Tam 0.05 μg p.o. per mouse per day, single agents
[11] = higher dose: AFPep 270 μg/rat/day s.c. or Tam 6.25 μg/rat/day oral gavage
[12] = higher dose: AFPep 270 (marked * P<0.05 vs control) or Tam 6.25 μg/rat/day
[13] = higher dose: AFPep 270 or Tam 6.25 μg/rat/day
[14] = suboptimal dose: AFPep 100 μg/rat/day s.c., Tam 0.05 μg/rat/day oral gavage, or both (100+0.05)
[15] = suboptimal dose: AFPep 100, Tam 0.05, or both (100+0.05) μg/rat/day, AFPep and AFPep+Tam marked * P<0.05 vs control
[16] = suboptimal dose: AFPep 100, Tam 0.05, or both (100+0.05) μg/rat/day
[17] = higher dose: AFPep 270 μg/rat/day

| Molecule | Inhibition of binding of [^3H]E2 to ER (in words) [1] | Growth of MCF-7 tumour xenografts (in words) [2, 9] | Growth of MCF-7 tumour xenografts (in words) [2, 10] | Inhibition of basal (no E2) growth of T47D cells (in words) [4] | Inhibition of E2-stimulated growth of T47D cells, single agent (in words) [4] | Inhibition of tumour formation (in words) [5] | Incidence (percent of rats with one or more tumours when killed, approximately 120 days after MNU) [5, 11] [%] | Volume (sum of the volumes of tumours in each group) [5, 12] | Multiplicity (total number of tumours/number of rats) [5, 13] [tumours/rat] | Latency (mean number of tumour-free days±s.d.) [5, 13] [days] | Incidence (percent of rats with one or more tumours when killed, approximately 120 days after MNU) [5, 14] [%] | Volume (sum of the volumes of tumours in each group) [5, 15] | Multiplicity (total number of tumours/number of rats) [5, 16] [tumours/rat] | Latency (mean number of tumour-free days±s.d.) [5, 16] [days] | Growth of immature mouse uterus (in words) [6] | Body weight [7, 13] [g] | Uterine weight [7, 16] [g] | Heart weight [7, 16] [g] | Body weight [7, 16] [g] | other results |
| --- | --- | --- | --- | --- | --- | --- | --- | --- | --- | --- | --- | --- | --- | --- | --- | --- | --- | --- | --- | --- |
| cyclo(EKTOVNOGN) (head to tail) [AFPep] | did not inhibit the binding of [^3H]E2 to ER | completely prevented the growth of MCF-7 tumour xenografts | tumour growth occurred, although it was less than tumour growth in nontreated mice | neither Tam nor AFPep inhibited the basal (no E2) growth | inhibited the E2-stimulated growth | significant inhibition of tumour formation | 40 | 34.5^* cm^3 | 0.5 | 88 ± 16 | 63 | 39.1^* cm^3 | 1.1 | 97 ± 33 | does not stimulate uterine growth | 280 ± 29 | 0.52 ± 0.15 | 1.12 ± 0.14 | 285 ± 24 | ER antagonist / partial agonist (in words) [3]: not an ER antagonist, nor an ER partial agonist; Tam-induced growth of immature mouse uterus (in words) ([6]; AFPep 10 μg i.p. 1 h before Tam 1 μg i.p., Figure 4 * P<0.05 vs Tam alone, Dunnett's test): significantly inhibits the Tam-induced growth of the immature mouse uterus; Uterine weight [7, 17]: 0.62 ± 0.17 g; Heart weight [7, 17]: 1.09 ± 0.13 g; Effect on body weight, fur texture, cage activity, organ weights (in words) ([7]; rats, therapeutic doses for 2–3 weeks): no effect on body weight, fur texture, or cage activity during the lifespan of the animals, or on organ weights obtained at necropsy; Stimulation of phosphorylation of ER at serine 118 (in words) ([8]; ref Bennett et al, 2006): did not stimulate phosphorylation of ER at serine 118; Inhibition of phosphorylation of ER following ligand binding (in words) ([8]; stated in Discussion as function of AFPep, not measured in this paper): inhibit the phosphorylation of ER that follows ligand binding to ER |
| CC/C(=C(\c1ccccc1)c1ccc(OCCN(C)C)cc1)c1ccccc1 [Tam, Tamoxifen, reference compound] | concentration-dependent inhibition of E2 binding | completely prevented the growth of MCF-7 tumour xenografts | tumour growth occurred, although it was less than tumour growth in nontreated mice | neither Tam nor AFPep inhibited the basal (no E2) growth | inhibited the E2-stimulated growth | significant inhibition of tumour formation | 26 | 70.2 cm^3 | 0.5 | 85 ± 15 | 73 | 62.4 cm^3 | 1.3 | 95 ± 36 | stimulates the growth of immature mouse uterus | 273 ± 28 | 0.49 ± 0.17 | 1.12 ± 0.13 | 282 ± 31 | Effect on uterine growth (in words) ([7]; rats, low doses, whether or not AFPep was present): no effect on uterine growth; Stimulation of phosphorylation of ER at serine 118 (in words) ([8]; following binding to receptor, ref Chen et al, 2002): stimulates phosphorylation of ER at serine 118 |
